Patent publication US10023864B2, “Methods of treating a metabolic syndrome by modulating heat shock protein (HSP) 90-beta” (Berg LLC, priority 2014, dated 2018)
“Also recorded” adds a separate entry of the source. d = 2'-deoxy (DNA); m = 2'-O-methyl

Columns and labels:
human Hsp90AB1 protein = assay: Knockdown of Hsp90AB1 protein in HSMM by Western blotting; assay type: cell-based; settings: Western blot, normalized to actin, vs NC1
Description: ASO1-ASO6 were tested for their ability to knock down human Hsp90AB1 levels in HSMM myotubes. The effectiveness of oligonucleotides ASO1 (A1), ASO2 (A2) ASO3 (A3) ASO4 (A4) ASO5 (A5) and ASO6 (A6) in knocking down the expression of HSP90AB1 protein is shown by Western blotting in FIGS. 19A and 19B. The oligonucleotide NC1 was used as a negative control. HSP90Ab1 protein levels were normalized to the levels of actin.
(§1) The ASO oligonucleotides ASO5, ASO13 and ASO18 were tested for their ability to reduce expression of human Hsp90AB1 protein in human skeletal muscle myotubes (HSMM) and C2C12 mouse myoblasts by Western blotting. ASO5 was derived from the mouse HSP90ab1 gene, while ASO13 and ASO18 were directed to the human HSP90ab1 gene. The oligonucleotide NC1 was used as a negative control. HSP90AB1protein levels were normalized to the levels of actin.

DIO mice [1] = assay: Heat production in DIO mice; assay type: in vivo, mouse; settings: eight weeks treatment
Description: The CLAMS (Columbus Instruments, Columbus, Ohio, USA) metabolic monitoring cages are used to simultaneously monitor horizontal and vertical activity, feeding and drinking, oxygen consumption, and CO2 production. ASO injected and control mice are individually placed in CLAMS cages and monitored over a 4-day period after acclimation to the cages for 1-2 days. The various parameters are recorded in both fasted and fed conditions. Food and water consumption are measured directly as accumulated data. Hourly files display all measurements for each parameter: volume of oxygen consumed, ml/kg per h (VO2), volume of carbon dioxide produced, ml/kg per h (VCO2), respiratory exchange ratio, heat (kcal/h), accumulated food (g), accumulated drink (g), XY total activity (all horizontal beam breaks in counts), XY ambulatory activity (minimum three different, consecutive horizontal beam breaks in counts), and Z activity (all vertical beam breaks in counts). The data are recorded during the 30-s sampling period. The CLAMS data are analyzed by normalizing with lean body mass.

[2] = test system: Hsp90AB1 protein in C2C12 mouse myoblasts; assay: Hsp90AB1 protein expression in C2C12 mouse myoblasts by Western blotting; assay type: cell-based; settings: Western blot, normalized to actin, vs NC1
Description: as §1

HSP90α and HSP90β = settings: HSP90α vs HSP90β; cited from earlier work
HSMM myotubes [3] = assay: Insulin signaling experiments in HSMM myotubes (western blot of phosphorylated Akt, ERK, GSK3β); assay type: cell-based, human
Description: Human HSMM myotubes cells that were plated in 12 well plates the previous week were used. The media was aspirated and fresh media with appropriate dilutions of the NC and H3 siRNA for Hsp90 knockdown were added such that the final concentration in the wells of the plate was 100 nM. Minis TKO transfection reagent was used for transfecting the cells. The plate was then incubated at 37° C. overnight.
The media was aspirated and the cells were washed off twice—first with warm PBS and second with 0.1% BSA containing growth media. The cells were then serum starved for 2-3 hours in 0.1% differentiation media containing the appropriate inhibitors at 37° C. followed by insulin stimulation for 5 minutes (0, 10, and 100 nM insulin).
The wells were then washed once with PBS and harvested into 100 μl of RIPA buffer containing protease and phosphatase inhibitors. The plate was placed on ice and, using a cell scraper, the cells were scraped from the plate. The lysates were collected in 1.5 ml Eppendorf tubes and homogenized by using a syringe and needle. The lysates were then centrifuged at 4° C. for 10 mins at 14,000 RPM. The lysates can be stored at −20° C. for future use.
Protein content was estimated by BCA assay and samples were prepared for gel electrophoresis and western blotting as described in subsequent sections. The total volume required to load 10 μg of total protein was calculated.
The samples were loaded onto a bis-tris or a tris-glycine-SDS gel. Proteins were transferred to a PVDF or a nitrocellulose membrane using routine wet or dry transfer methods. The membranes were then blocked for at least an hour using the blocking buffer. The membranes were then cut prior to exposure to the appropriate primary antibodies diluted in blocking buffer for incubation. Primary antibodies to pAKT (p-Akt, S473), pERK(p-Erk, Phospho-p44/42 MAPK (Erk1/2) (Thr202/Tyr204), and pGSK3β (Phospho-GSK-3β (Ser9) were obtained from Cell Signaling Inc.® Other antibodies were also obtained from commercial sources. The membrane was placed in the shaker and incubated in the refrigerator (4° C.) overnight.
Visualization of proteins and quantification of western blots was performed as follows. The membranes were washed thrice using 1×PBS-T (10 minutes each). […]
Each strip of membrane was taken out arranged in a clean flat surface. […] The bands were quantified using the BIORAD® software.
HSMM myotubes were sequentially (1) transfected with 3 different siRNAs targeting HSP90AB1 for 48 hours, (2) serum starved for 3 hours, and (3) subjected to stimulation of different concentrations of insulin (0, 10, 100 nM). Signaling events downstream of insulin stimulation were assessed by western blotting for levels of total and phosphorylated Akt, Erk, and GSK3β. […]

HSMM myotubes [4] = assay: Seahorse bioenergetic profiling of myotubes (OCR); assay type: cell-based, human
DIO mice [5] = assay: Insulin level in DIO mice; assay type: in vivo, mouse
Description: The mice were divided into four groups: (1) lean (non-diabetic control); (2) diabetic receiving control ASO (NC-ASO); (3) diabetic receiving ASO5; and (4) diabetic receiving ASO6. In various experiments mice were dosed intra-peritoneally with twice per week injection of ASO at […] body weight for 4 or 8 weeks. Skeletal muscles were subjected to quantitative PCR.
Further, the effect of the reduction of Hsp90ab1 protein level on plasma insulin levels was examined.

In the case of “mA*mU*mC*mU*mC*mC*T*T*C*T*C*C*C*G*T*T*C*C*mU*mU*mC*mU*mC*mC (antisense AUCUCCTTCTCCCGTTCCUUCUCC; sugars from the 5' end m6 d12 m6, all phosphorothioate, methylation of C not given here) [ASO2, modified antisense oligonucleotide derived from the mouse HSP90AB1 gene]”, the “level of HSP90ab1 protein” value (human Hsp90AB1 protein) is reported as “effective” and the heat production (DIO mice [1]) is reported as “improves”.

With “mA*mU*mG*mC*mC*mC*T*G*A*A*T*T*C*C*A*A*C*T*mG*mA*mC*mC*mU*mU (antisense AUGCCCTGAATTCCAACTGACCUU; sugars from the 5' end m6 d12 m6, all phosphorothioate, methylation of C not given here) [ASO18, modified ASO designed on homology among mouse, monkey and human HSP90ab1 genes]” the “level of HSP90ab1 protein” value (human Hsp90AB1 protein) was “significantly decreased; also recorded: significantly reduced” and the Hsp90AB1 protein expression [2] was “significantly decreased; also recorded: significantly reduced”.

For “mC*mU*mU*mC*mC*mU*T*G*A*C*C*C*T*C*C*T*C*T*mC*mC*mU*mC*mC*mA (antisense CUUCCUTGACCCTCCTCTCCUCCA; sugars from the 5' end m6 d12 m6, all phosphorothioate, methylation of C not given here) [ASO4, modified antisense oligonucleotide derived from the mouse HSP90AB1 gene]”, the “level of HSP90ab1 protein” value (human Hsp90AB1 protein) was “effective”.

In the case of NVP-HS990, the HSP90 isoform preference (HSP90α and HSP90β) is listed as “inhibit both the HSP90α and HSP90β isoforms”.

For “mC*mU*mC*mU*mU*mC*C*T*C*T*G*C*C*T*C*A*T*C*mA*mU*mC*mA*mC*mU (antisense CUCUUCCTCTGCCTCATCAUCACU; sugars from the 5' end m6 d12 m6, all phosphorothioate, methylation of C not given here) [ASO13, modified ASO designed on homology among mouse, monkey and human HSP90ab1 genes]”, the “level of HSP90ab1 protein” value (human Hsp90AB1 protein) was “significantly decreased; also recorded: significantly reduced” and the Hsp90AB1 protein expression [2] was “significantly decreased; also recorded: significantly reduced”.

With `CCc1cc(-c2n[nH]c(C)c2-c2ccc3c(c2)OCCO3)c(O)cc1O` [CCT018159] the “effect on insulin signaling and bioenergetics compared with HSP90β knockdown alone” value (HSMM myotubes [3]) was “less profound effect”, the “level of pERK” value (HSMM myotubes [3]; CCT018159 and insulin) was “No significant changes; also recorded: no change” and the “level of pGSK3β” value (HSMM myotubes [3]; CCT018159 and insulin) was “No significant changes; also recorded: no change”. For the same compound, the “insulin stimulated phosphorylation of Akt (phospho-AKT)” value (HSMM myotubes [3]; CCT018159 then insulin, effect at the higher concentration, 10 uM) was “increase; also recorded: significantly enhanced”, the “CCCP induced uncoupling response on mitochondrial metabolism” value (HSMM myotubes [4]; CCT018159 at 1 μM, 3 μM, and 10 μM (FIG. 10 legend)) was “did not have a significant effect” and the “uncoupled OCR” value (HSMM myotubes [4]; myotubes, CCT018159 1 μM) was “increased”. The “uncoupled (CCCP induced) OCR” value (HSMM myotubes [4]; myotubes, CCT018159, 10 uM induced greater suppression) was “decreased in a concentration dependent manner” and the “basal OCR” value (HSMM myotubes [4]; myotubes, CCT018159 at different concentrations) was “no observed change”.

In the case of `C[C@@H]1C[C@H]2O[C@@H]2/C=C\C=C\C(=O)Cc2c(Cl)c(O)cc(O)c2C(=O)O1` [radicicol], the HSP90 isoform preference (HSP90α and HSP90β) is listed as “HSP90β is more sensitive”.

With “mC*mC*mA*mC*mU*mU*C*C*T*T*G*A*C*C*C*T*C*C*mU*mC*mU*mC*mC*mU (antisense CCACUUCCTTGACCCTCCUCUCCU; sugars from the 5' end m6 d12 m6, all phosphorothioate, methylation of C not given here) [ASO5, modified antisense oligonucleotide derived from the mouse HSP90AB1 gene]” the Hsp90AB1 protein expression [2] was “did not significantly reduce” and the fed insulin levels (DIO mice [5]) was “significant reduction”.

For “mU*mC*mU*mC*mC*mU*T*C*T*C*C*C*G*T*T*C*C*T*mU*mC*mU*mC*mC*mA (antisense UCUCCUTCTCCCGTTCCTUCUCCA; sugars from the 5' end m6 d12 m6, all phosphorothioate, methylation of C not given here) [ASO1, modified antisense oligonucleotide derived from the mouse HSP90AB1 gene]”, the “level of HSP90ab1 protein” value (human Hsp90AB1 protein) was “effective” and the heat production (DIO mice [1]) was “improves”.

In the case of “mA*mC*mU*mU*mC*mC*T*T*G*A*C*C*C*T*C*C*T*C*mU*mC*mC*mU*mC*mC (antisense ACUUCCTTGACCCTCCTCUCCUCC; sugars from the 5' end m6 d12 m6, all phosphorothioate, methylation of C not given here) [ASO3, modified antisense oligonucleotide derived from the mouse HSP90AB1 gene]”, the “level of HSP90ab1 protein” value (human Hsp90AB1 protein) is reported as “effective”.

For `O=C(O)/C=C/c1nn(Cc2ccc(Cl)cc2Cl)c2cc(C(F)(F)F)ccc12` [gamendazole], the HSP90 isoform preference (HSP90α and HSP90β) is listed as “specific for HSP90β”.
